Test [1] has as its system H37RvMA. The test can be described thus: Tuberculosis Alamar Blue/Resazurin assay (MIC). In kind it is cell-based. Conditions: Mycobacterium tuberculosis, H37RV, read-out: WT H37Rv MTB Activity.
In test [2] the test system is E. coli. The test can be described thus: Gram negative MIC protocol (OD600, LB, 24 h). The conditions noted are these: Escherichia coli.
Description: (§1) Overnight bacterial cultures were grown in LB with no added antibiotics at 37° C. with shaking. A 1:1000 dilution of these cultures into LB was exposed to concentration gradients of compounds in 96-well plates (100 μL per well assay volume). Resulting plates were incubated at 37° C. for 24 h without shaking, and OD600 was measured at the end of the incubation. MICs were determined as the lowest concentrations at which OD600 remained at baseline.
The subject of test [3] is A. baumannii. The test can be described thus: Gram negative MIC protocol (OD600, LB, 24 h). Conditions: Acinetobacter baumannii.
Description: as §1
Setting [4] is: read-out: MIC E. coli delta-TolC LB Media, E. coli delta-TolC, LB media, OD600.
The mark [5] stands for this setting: read-out: MIC WT E. coli LB Media, WT E. coli, LB media, OD600.
Where [6] appears, read: read-out: MIC A. baumannii LB Media, A. baumannii, LB media, 24 h, OD600.
[7] abbreviates: read-out: MIC A. baumannii LB Media.

In brackets after ≈: the same amount, converted by molar mass. Structures can show the parent of a compound that is named as a salt. Where two headings read alike, the source gives them in different places.

Regarding `c1ccc(CNCCN2CCc3sccc3C2)cc1` [B140], the MIC in test [1] (WT H37Rv MTB), in test [2] (setting [4]), in test [2] (setting [5]) and in test [3] (setting [6]) was more than 150 µM in each case.
As for `c1ccc(CNCC2CCCC2)cc1` [B141], the MIC in test [1] (WT H37Rv MTB), in test [2] (setting [4]), in test [2] (setting [5]) and in test [3] (setting [6]) was more than 150 µM in each case.
Regarding `CC1CCC(NCc2ccccc2)CC1` (stereo not shown) [B142], the MIC in test [1] (WT H37Rv MTB), in test [2] (setting [4]), in test [2] (setting [5]) and in test [3] (setting [6]) was more than 150 µM throughout.
As to `COc1cccc(CNCCC2=CCCCC2)c1` [B143], the MIC in test [1] (WT H37Rv MTB), in test [2] (setting [4]), in test [2] (setting [5]) and in test [3] (setting [6]) was more than 150 µM each time.
Turning to `Fc1ccc(CNCCC2=CCCCC2)cc1F` [B144], the MIC in test [1] (WT H37Rv MTB), in test [2] (setting [4]), in test [2] (setting [5]) and in test [3] (setting [6]) was more than 150 µM throughout.
Turning to `CC1CCc2ccccc2N1CCNCc1ccccc1` (stereo not shown) [B145], the MIC is 91 µM (≈ 25.5 µg/mL) in test [1] (WT H37Rv MTB), more than 150 µM in test [2] (setting [4]), more than 150 µM in test [2] (setting [5]) and more than 150 µM in test [3] (setting [6]).
In the case of `c1ccc(CNCCC2CC3CCC2C3)cc1` (stereo not shown) [B146], the MIC is more than 150 µM in test [1] (WT H37Rv MTB), 90 µM (≈ 20.6 µg/mL) in test [2] (setting [4]), 150 µM (≈ 34.4 µg/mL) in test [2] (setting [5]) and 150 µM (≈ 34.4 µg/mL) in test [3] (setting [6]).
In the case of `COc1cc2c(cc1OC)CN(CCNCc1ccccc1)CC2` [B147], the MIC in test [1] (WT H37Rv MTB), in test [2] (setting [4]), in test [2] (setting [5]) and in test [3] (setting [6]) was more than 150 µM in each case.
`c1ccc(CNCCN2CCCc3ccccc32)cc1` [B148]: the MIC in test [1] (WT H37Rv MTB) was 150 µM (≈ 40 µg/mL); in test [2] (setting [4]), more than 150 µM; in test [2] (setting [5]) it was more than 150 µM; in test [3] (setting [6]) it was more than 150 µM.
Regarding `CC(NCc1ccccc1)C1(C)CC1` (stereo not shown) [B149], the MIC in test [1] (WT H37Rv MTB), in test [2] (setting [4]), in test [2] (setting [5]) and in test [3] (setting [6]) was more than 150 µM in each case.
In the case of `CCCCCCCCNCc1ccccc1` [B150], the MIC in test [1] (WT H37Rv MTB), in test [2] (setting [4]), in test [2] (setting [5]) and in test [3] (setting [6]) was more than 150 µM throughout.
As to `C1=C(CCNCCc2ccccc2)CCCC1` [B151], the MIC in test [1], in test [2] (setting [4]), in test [2] (setting [5]) and in test [3] (setting [6]) was more than 150 µM in each case.
In the case of `C1=C(CCNCc2cccs2)CCCC1` [B152], the MIC in test [1] (WT H37Rv MTB), in test [2] (setting [4]), in test [2] (setting [5]) and in test [3] (setting [6]) was more than 150 µM throughout.
`c1ccc(CNCCc2ccc3c(c2)OCO3)cc1` [B154]: the MIC in test [1], in test [2] (setting [4]), in test [2] (setting [5]) and in test [3] (setting [7]) was more than 150 µM each time.
In the case of `c1ccc(CNCCc2ccc3ccccc3n2)cc1` [B155], the MIC in test [1] (WT H37Rv MTB), in test [2] (setting [4]), in test [2] (setting [5]) and in test [3] (setting [6]) was more than 150 µM throughout.
Consider `C1=CCC(CCNCc2ccccc2)CC1` (stereo not shown) [B156, N-benzyl-2-(cyclohex-3-enyl)ethanamine hydrochloride], for which the MIC was more than 150 µM in test [1], 150 µM in test [2] (setting [4]), 150 µM in test [2] (setting [5]) and 150 µM in test [3] (setting [7]).
Regarding `CC(CC1CC=CCC1)NCc1ccccc1` (stereo not shown) [B157, N-benzyl-1-(cyclohex-3-enyl)propan-2-amine], the MIC in test [1] stood at 91 µM (≈ 20.9 µg/mL); in test [2] (setting [4]), 11 µM (≈ 2.52 µg/mL); in test [2] (setting [5]) it was 20 µM (≈ 4.59 µg/mL); in test [3] (setting [7]), 55 µM (≈ 12.6 µg/mL).
As for `OB1OCc2ccc(CNCc3ccccc3)cc21` [B158, 6-((benzylamino)methyl)benzo[c][1,2]oxaborol-1(3H)-ol], the MIC in test [1] (WT H37Rv MTB), in test [2] (setting [4]), in test [2] (setting [5]) and in test [3] (setting [6]) was more than 150 µM in each case.
In the case of `C1=CC(CCNCc2ccccc2)CCC1` (stereo not shown) [B160], the MIC in test [1], in test [2] (setting [4]), in test [2] (setting [5]) and in test [3] (setting [7]) was more than 150 µM throughout.
For `C1=C(CC2CCCN2Cc2ccccc2)CCCC1` (stereo not shown) [B161], the MIC in test [1] (WT H37Rv MTB) is more than 150 µM; in test [2] (setting [4]) it was more than 300 µM; in test [2] (setting [5]), more than 300 µM; in test [3] (setting [6]) it was more than 150 µM.
Turning to `CC1=C(C)CC(CC(C)NCc2ccccc2)CC1` (stereo not shown) [B162, N-benzyl-1-(3,4-dimethylcyclohex-3-en-1-yl)propan-2-amine], the MIC in test [1] (WT H37Rv MTB) was more than 150 µM; in test [2] (setting [4]) it was 300 µM (≈ 77.2 µg/mL); in test [2] (setting [5]) it was more than 500 µM; in test [3] (setting [6]), more than 150 µM.
Take `C1=C(CC2CCCCN2Cc2ccccc2)CCCC1` (stereo not shown) [B163]: the MIC is more than 150 µM in test [1] (WT H37Rv MTB), 300 µM (≈ 80.8 µg/mL) in test [2] (setting [4]), more than 300 µM in test [2] (setting [5]) and more than 150 µM in test [3] (setting [6]).

For the origin of these results see patent US11261201B2 (priority 2018, dated 2022).
